From patent publication US20250263416A1, “SPPL2a INHIBITORS” (Incyte Corporation, priority 2024, published 2025)
Entries after “also recorded” stand apart in the source; their conditions may differ.

Tests used:
[1] = In vivo epimerization and PK, statements covering all three preclinical models; parameters: species or system Sprague Dawley rats, beagle dogs, cynomolgus monkeys; conditions: for retention of deuterium in the process of epimerization: all species studied; for in vivo epimerization at the chiral carbon in the 7-membered ring: rat, monkey and dog models, PO; for exposures and PK (other than epimerization) across species: rats, monkeys, dogs
Experimental: These factors may lead to accumulation and potenial toxicity. The effect on epimerization by substitution at the chiral carbon was tested by comparing Example A, Example 1, and Example 29 in the following preclinical in vivo pharmacokinetic models: Sprague Dawley rats, beagle dogs, and cynomolgus monkeys.
Two groups of male Sprague Dawley rats (n=3 each) received either a single 10 mg/kg PO dose of Example A or Example 1 in a vehicle consisting of 0.5% methylcellulose in water. Blood samples were collected at 0.25, 0.5, 1, 2, 4, and 6 hours postdose.
Male Sprague Dawley rats (n=3 each) received a single 3 mg/kg PO dose of Example 29 in a vehicle consisting of 5% dimethylacetamide (DMAC) in 50 mM citrate buffer w/0.5% methylcellulose. Blood samples were collected at predose, 0.25, 0.5, 1, 2, 4, 6, 8, 12, and 24 hours postdose.
(§1) Three groups of male cynomolgus monkeys (n=2 each) received either a single 3 mg/kg PO dose of Example A, Example 1, or Example 29 in a vehicle consisting of 5% dimethylacetamide (DMAC) in 50 mM citrate buffer w/0.5% methylcellulose. Blood samples were collected at predose, 0.25, 0.5, 1, 2, 3, 4, 6, 8, 12, and 24 hours postdose.
as §1, with “beagle dogs” for “cynomolgus monkeys”, “12, 24” for “12,”, “48” for “24”
All blood samples were collected using EDTA as the anticoagulant and centrifuged to obtain plasma. Plasma concentrations of Example A, Example 1, and their respective diastereomers were determined under non-GLP conditions using standard reverse phase LC-MS/MS bioanalytical methods. The individual plasma concentration-time data was used to determine the area under the curve (AUC) values using GraphPad Prism (v9.3.1).

human SPPL2a [2] = target: T1, human SPPL2a (Homo sapiens, UniProt Q8TCT8); test: Nuclear translocation imaging assay for human SPPL2a (SPPL2a reporter U2OS cell line); assay type: cell-based; conditions: U2OS reporter cells, 24 h incubation
T1 construct: expressed in transfected cells; host or cells: U2OS (SPPL2a reporter cell line)
T1 sequence (Q8TCT8 26-520): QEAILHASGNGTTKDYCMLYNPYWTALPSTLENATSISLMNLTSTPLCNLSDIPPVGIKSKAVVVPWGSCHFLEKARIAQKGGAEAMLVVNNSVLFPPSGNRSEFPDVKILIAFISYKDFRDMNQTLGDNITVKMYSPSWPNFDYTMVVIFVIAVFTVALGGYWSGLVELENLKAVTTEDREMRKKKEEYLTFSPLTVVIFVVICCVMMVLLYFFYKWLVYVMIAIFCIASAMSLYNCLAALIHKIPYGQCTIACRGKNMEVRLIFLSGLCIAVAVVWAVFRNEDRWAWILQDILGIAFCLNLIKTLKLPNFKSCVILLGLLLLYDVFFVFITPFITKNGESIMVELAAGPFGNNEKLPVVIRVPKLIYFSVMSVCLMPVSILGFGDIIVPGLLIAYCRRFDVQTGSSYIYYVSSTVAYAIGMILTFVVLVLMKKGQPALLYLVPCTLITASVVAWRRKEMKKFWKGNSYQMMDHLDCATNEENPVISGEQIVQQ
Experimental: The nuclear translocation imaging assays for human SPPL2a were performed using an SPPL2a reporter U2OS cell line as previously described (Velcicky et al 2018, Zhang et al 2017). These cells stably express human SPPL2a and a doxycycline inducible eGFP TNFα (aa 1-76) NTF fusion protein (SPPL2a substrate). Both Example 1 and Example A were added at indicated concentrations and cells were incubated for 24 h, washed, and fixed. Nuclei were stained with DAPI. Images were acquired on a confocal fluorescence microscope system LSM-800 (Carl Zeiss). Image data was analyzed by using mid-section from Z-stack images of at least 10 individual cells per sample. All data is presented as mean+SEM. Statistical significance was calculated with the ANOVA test using GraphPad Prism™ 10.

human SPPL2a [3] = target: T1, human SPPL2a; test: Western blot assay of TNFα-GFP cleavage in U2OS cells expressing human SPPL2a; assay type: cell-based; conditions: SPPL2a-U2OS reporter cells, 24 h
Experimental: To confirm the cleavage of TNF-α in the U2OS cells that express human SPPL2a, a western blot assay was performed. The same cell line used for the imaging assays were used; these cells express human SPPL2a constitutively and an eGFP-labelled TNFα (aa 1-76) NTF substrate under a doxycycline promotor. In the presence of SPPL2a activity, TNFα-GFP is cleaved at the NTF, resulting in a single 54-56 kDa band (lower MW). If SPPL2a activity is inhibited, TNFα GFP processing is abrogated resulting in a higher molecular weight band (60-62 kDa; complete inhibition) and or both 54-56 kDa and 60-62 kDa bands (incomplete inhibition, smeared appearance) on the blot. Both Example 1 and Example A were added at indicated concentrations, and cells were incubated for 24 h with the inhibitors. Total cell lysated were prepared in ice cold-1X RIPA buffer containing protease inhibitor cocktail (AKR-190, Cell BioLabs). Lysates were collected and quantified for the total protein on NanoDrop using BCA kit (23227, Thermo Scientific). […] To detect cleaved and un-cleaved TNFα-GFP fragments, anti-GFP antibody (AF4240, R&D Biosystems) was used as a primary antibody and detected using anti-goat detection module (DM-006, ProteinSimple) according to the manufacturer's protocol. Data was analyzed using ProteinSimple compass software.

[4] = tested on: Imiquimod (IMQ)-induced psoriasis mouse model; test: Imiquimod (IMQ)-induced psoriasis mouse model; assay type: in vivo, BALB/c female mice; conditions: 15 mg/kg PO BID
Experimental: A comparative study was performed to evaluate the efficacy of the deuterated-inhibitor Example 1 to Example A in the mouse model of psoriasis. Briefly, BALB/c female mice (7-8 week age) were shaved on the dorsal skin and 62.5 mg of IMQ cream was applied daily until day 9. Simultaneously, 15 mg of IMQ cream was applied on one ear daily until day 9. Example 1 and Example A were given orally (PO) at 15 mg/kg, BID. Mice were monitored and clinical signs of psoriasis were recorded (PSI score), both on the dorsal skin (erythema, scaling & thickness) and on the IMQ-applied ear (thickness). All data is presented as mean+SEM. For comparison of more than two groups, ANOVA was used. Pearson product moment correlation was used to test for correlations. All statistical analysis was performed using GraphPad Prism™ 10.

[5] = tested on: Collagen-Induced Arthritis (CIA) mouse model; test: Collagen-induced arthritis (CIA) mouse model; assay type: in vivo, DBA-1 mice; conditions: 50 mg/kg dose, compared to the vehicle
Source text: Female DBA-1 mice (8-9 weeks old) were used in the CIA mouse model. This model is widely used to evaluate efficacy of immunomodulatory drugs on autoimmune diseases, such as arthritis. DBA/1 mice develop collagen-induced arthritis (CIA) after immunization with bovine type II collagen emulsified in complete Freund's adjuvant (CFA), followed by a booster dose 21 days later. Both the immunizations were given subcutaneously, approximately 25 mm from the base of the tail on opposite sides. Immunizations were performed under a short duration isoflurane anesthesia. Mice were evaluated for the disease progression up to 45 days. […] Statistical significance was determined using Two-way ANOVA with multiple comparison tests to compare all groups to the vehicle.

| SMILES | retention of deuterium in the process of epimerization [1] | in vivo epimerization at the chiral carbon in the 7-membered ring [1] | exposures and PK (other than epimerization) across species [1] | inhibition of nuclear translocation of TNFα-GFP (human SPPL2a [2]) | TNFα-GFP cleavage inhibition (SPPL2a activity inhibition) (human SPPL2a [3]) | dorsal PSI scores [4] | ear thickness measurements [4] | clinical signs of psoriasis disease ([4]; compared to vehicle group) | Mouse IL-12 level in plasma ([4]; terminal day) | Mouse TNFα level in plasma ([4]; terminal day) | clinical signs of CIA [5] |
| --- | --- | --- | --- | --- | --- | --- | --- | --- | --- | --- | --- |
| [2H]C([2H])([2H])NC(=O)c1nc(C)c(C(=O)NC[C@@H](C)C(=O)N[C@]2([2H])C(=O)N3CCCN3Cc3ccccc32)s1 [Example 29, 4-Methyl-N2-(methyl-d3)—N^5—((R)-2-methyl-3-oxo-3-(((S)-11-oxo-2,3,10,11-tetrahydro-1H,5H-benzo[d]pyrazolo[1,2-a][1,2]diazepin-10-yl-10-d)amino)propyl)thiazole-2,5-dicarboxamide] | retained | observed in all three models | consistent |  |  |  |  |  |  |  |  |
| [2H][C@@]1(NC(=O)[C@H](C)CNC(=O)c2sc(C(=O)NC)nc2C)C(=O)N2CCCN2Cc2ccccc21 [Example 1, N^2,4-Dimethyl-N^5—((R)-2-methyl-3-oxo-3-(((S)-11-oxo-2,3,10,11-tetrahydro-1H,5H-benzo[d]pyrazolo[1,2-a][1,2]diazepin-10-yl-10-d)amino)propyl)thiazole-2,5-dicarboxamide] | retained | reduction of in vivo epimerization; also recorded: observed in all three models | consistent | inhibited; also recorded: comparable and significant TNFα-GFP inhibition of nuclear translocation | SPPL2a activity inhibition; also recorded: Comparable and significant TNFα-GFP cleavage inhibition | alleviate | alleviate | significantly reduced | significant reduction | significant reduction | significantly reduced |
